The values that follow come from publication PMC9853848 (Journal of the American Chemical Society, 2022).

Read-outs that look alike come from different tables or passages of the source.

Assay [1] deals with T1, P91.
T1 construct: full-length, N-terminal His6-tag, purified recombinant (E. coli); Cys118-His199-Asp167 triad
It counts as biochemical, uncultured bacterium.

Assay [2] relates to T1, P91. It counts as biochemical, uncultured bacterium. To be noted: read-out: KM (μM) ^b.
The subject of assay [3] is P91. To be noted: P91-R2; 25 °C, pH 8.0; covalent intermediate.

For `CCOP(=O)(OCC)Oc1ccc2c(c1)Oc1cc(OP(=O)(OCC)OCC)ccc1C21OC(=O)c2ccccc21` [compound 1, FDDEP], the “Ki” value on P91 [1] was 290 ± 89 µM. The Km in the assay with P91 [2] was determined as 46 ± 9.7 µM. `CCOP(=O)(OCC)Oc1ccc([N+](=O)[O-])cc1` [compound 2, paraoxon-ethyl]: in the assay on P91 [3], the Km is 290 µM.

A word on the Ki: it is a dissociation constant, usually derived from enzyme kinetics or from competition with a known ligand. Read a low Ki as higher affinity. In general, Km refers to the concentration of substrate that gives half-maximal velocity.
